Eight compounds from PubChem BioAssay (NCI) can be followed below.

Test systems include NCI-H226 lung; OVCAR-4 ovarian; MDA-MB-231 breast; M14 melanoma; SN12C renal; SW-620 colon; A549 NSCLC; UACC-257 melanoma; HOP-92 NSCLC; COLO 205 colon.
Common to all, as to test: NCI anticancer screen, dose series, 48 h

Molecules are shown by their SMILES. “And” between values parts separate entries of the source, which are not always exact repeats. Identical values can stand only once.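 Five compound concentrations were applied to cells in 96-well plates for 48 hours; endpoints were derived by simple linear interpolation of the resulting dose-response curve. GI50: concentration for 50% inhibition of growth. TGI marks complete inhibition of growth.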 A value given as a limit tells only on which side of the number the result lay.

`N#Cc1c(N)nc(N2CCOCC2)c(C#N)c1-c1ccc(Cl)cc1`: the GI50 was 50400 nM with NCI-H226 lung; 29800 nM in the assay on OVCAR-4 ovarian; 17500 nM in the assay on MDA-MB-231 breast; 44600 nM in the assay with M14 melanoma; 50900 nM with SN12C renal; over 100000 nM in the assay with SW-620 colon. In addition, the GI50 is 42600 nM with A549 NSCLC, 40800 nM with UACC-257 melanoma, 9000 nM with HOP-92 NSCLC and 48500 nM in the assay with COLO 205 colon. Further, the TGI was over 100000 nM in the assay with NCI-H226 lung; over 100000 nM in the assay with OVCAR-4 ovarian; 90900 nM in the assay on MDA-MB-231 breast; over 100000 nM in the assay with M14 melanoma; over 100000 nM in the assay on SN12C renal; over 100000 nM with SW-620 colon. In addition, the TGI is over 100000 nM in the assay on A549 NSCLC, over 100000 nM in the assay with UACC-257 melanoma, 78400 nM in the assay with HOP-92 NSCLC and over 100000 nM in the assay on COLO 205 colon.
Regarding `COc1ccc(-c2nnc(SCC(=O)Nc3ccc(/C(C)=N\O)cc3)n2-c2ccccc2)cc1OC`, the GI50 is 7280 nM in the assay on NCI-H226 lung; over 100000 nM with OVCAR-4 ovarian; 4260 nM in the assay on MDA-MB-231 breast; 97400 nM with M14 melanoma; 26200 nM in the assay with SN12C renal; over 100000 nM with SW-620 colon. In addition, the GI50 is 9730 nM in the assay on A549 NSCLC, over 100000 nM with UACC-257 melanoma, 2120 nM in the assay with HOP-92 NSCLC and over 100000 nM with COLO 205 colon. Also, the TGI was over 100000 nM in the assay on NCI-H226 lung; over 100000 nM in the assay with OVCAR-4 ovarian; 23800 nM in the assay with MDA-MB-231 breast; over 100000 nM in the assay on M14 melanoma; over 100000 nM in the assay with SN12C renal; over 100000 nM in the assay on SW-620 colon. Besides, the TGI in the assay with A549 NSCLC is over 100000 nM; with UACC-257 melanoma it was over 100000 nM; in the assay on HOP-92 NSCLC it was 6420 nM; in the assay with COLO 205 colon, over 100000 nM.
For the compound `C=CCNCCCN1C(=O)c2ccc3c4c(ccc(c24)C1=O)C(=O)N(CCCNCC=C)C3=O`, the GI50 was 292 nM in the assay with NCI-H226 lung; 143 nM with OVCAR-4 ovarian; 681 nM in the assay with MDA-MB-231 breast; 470 nM with M14 melanoma; 399 nM in the assay with SN12C renal; 265 nM in the assay on SW-620 colon. In addition, the GI50 in the assay on A549 NSCLC is 226 nM; in the assay on UACC-257 melanoma, 333 nM; in the assay with HOP-92 NSCLC, 1560 nM; in the assay on COLO 205 colon, 172 nM. Also, the TGI came to 987 nM with NCI-H226 lung; 307 nM with OVCAR-4 ovarian; 5910 nM in the assay on MDA-MB-231 breast; 1660 nM in the assay on M14 melanoma; 1780 nM with SN12C renal; 1510 nM in the assay on SW-620 colon. The TGI worked out at 605 nM in the assay on A549 NSCLC, 1200 nM in the assay with UACC-257 melanoma, 7830 nM in the assay on HOP-92 NSCLC and 335 nM in the assay on COLO 205 colon.
In the case of `COc1ccc(C/C(C)=C(\c2ccc(OCCN3CCOCC3)cc2)c2ccc(OC(=O)Cc3ccccc3)cc2)cc1`, the GI50 was 691 nM in the assay with NCI-H226 lung; 1030 nM in the assay on OVCAR-4 ovarian; 583 nM in the assay on MDA-MB-231 breast; 590 nM in the assay on M14 melanoma; 612 nM in the assay with SN12C renal; 742 nM in the assay on SW-620 colon. Besides, the GI50 is 1020 nM in the assay on A549 NSCLC, 578 nM in the assay on UACC-257 melanoma, 280 nM in the assay on HOP-92 NSCLC and 614 nM with COLO 205 colon. Besides, the TGI in the assay with NCI-H226 lung worked out at 2380 nM; in the assay with OVCAR-4 ovarian, 10200 nM; in the assay on MDA-MB-231 breast it was 1260 nM; in the assay on M14 melanoma, 1190 nM; in the assay on SN12C renal, 1440 nM; in the assay on SW-620 colon it was 1800 nM. In addition, the TGI in the assay with A549 NSCLC came out at 11200 nM; in the assay on UACC-257 melanoma it was 1090 nM; in the assay on HOP-92 NSCLC, 901 nM; in the assay on COLO 205 colon it was 1540 nM.
In the case of `O=C1/C(=C/c2ccccc2F)CNC/C1=C\c1ccccc1F`, the GI50 with NCI-H226 lung was 3150 nM and 1460 nM; in the assay on OVCAR-4 ovarian, 596 nM and 385 nM; with MDA-MB-231 breast, 1180 nM and 653 nM; in the assay on M14 melanoma it was 1160 nM and 1200 nM; with SN12C renal, 837 nM and 783 nM; in the assay on SW-620 colon, 236 nM and 245 nM. In addition, the GI50 was 1810 nM and 1270 nM with A549 NSCLC; 1620 nM and 1730 nM in the assay with UACC-257 melanoma; 2820 nM and 1920 nM in the assay with HOP-92 NSCLC; 820 nM and 584 nM in the assay with COLO 205 colon. Further, the TGI in the assay on NCI-H226 lung is 10700 nM and 3910 nM; with OVCAR-4 ovarian it was 2980 nM and 1810 nM; in the assay with MDA-MB-231 breast, 3170 nM and 2360 nM; in the assay on M14 melanoma it was 3730 nM and 2840 nM; with SN12C renal, 2050 nM and 2810 nM; with SW-620 colon, 3490 nM and 647 nM. Further, the TGI in the assay on A549 NSCLC was 9350 nM and 5590 nM; in the assay on UACC-257 melanoma, 4160 nM and 3950 nM; in the assay with HOP-92 NSCLC it was 7370 nM and 4710 nM; with COLO 205 colon it was 2570 nM and 1820 nM.
Regarding `CC(=O)Nc1ccccc1C=C1c2ccccc2-c2ccccc21`, the TGI with NCI-H226 lung is 66800 nM; in the assay on OVCAR-4 ovarian, over 100000 nM; with MDA-MB-231 breast, 58200 nM; with M14 melanoma, over 100000 nM; in the assay with SN12C renal, 53600 nM; with SW-620 colon it was over 100000 nM. For the same compound, the TGI in the assay on A549 NSCLC, with UACC-257 melanoma and with COLO 205 colon was over 100000 nM each time.
Consider `Cc1nn(-c2ccccc2)c2c1CC(=O)Nc1ccccc1-2`, for which the GI50 with NCI-H226 lung was 465 nM; in the assay with MDA-MB-231 breast it was 578 nM; with M14 melanoma it was 188 nM; in the assay on SW-620 colon, 152 nM; with A549 NSCLC, 764 nM; in the assay on UACC-257 melanoma it was 273 nM. Further, in the assay with COLO 205 colon, the GI50 was 318 nM. Further, the TGI in the assay with NCI-H226 lung, in the assay on OVCAR-4 ovarian, in the assay with MDA-MB-231 breast, in the assay on M14 melanoma, with SN12C renal and in the assay with SW-620 colon was over 100000 nM throughout. Also, the TGI was over 100000 nM in the assay on A549 NSCLC; over 100000 nM in the assay with UACC-257 melanoma; 4840 nM and 1990 nM with COLO 205 colon.
For the compound `C/C(=C\c1ccn(-c2ccc(N)c(F)c2)n1)[C@@H]1C[C@@H]2O[C@]2(C)CCC[C@H](C)[C@H](O)[C@@H](C)C(=O)C(C)(C)[C@@H](O)CC(=O)O1`, the GI50 is 7990 nM in the assay with NCI-H226 lung; 96.4 nM in the assay with OVCAR-4 ovarian; 69.5 nM with MDA-MB-231 breast; 38.9 nM in the assay with SN12C renal; 10.3 nM in the assay on SW-620 colon; 11.8 nM in the assay on A549 NSCLC. In addition, the GI50 in the assay on UACC-257 melanoma is 45.8 nM; in the assay on HOP-92 NSCLC it was 11.9 nM; in the assay on COLO 205 colon, 8.45 nM. In addition, the TGI with NCI-H226 lung, with OVCAR-4 ovarian, with MDA-MB-231 breast, in the assay with SN12C renal, with SW-620 colon and in the assay with A549 NSCLC was over 50000 nM throughout. The TGI in the assay on UACC-257 melanoma is over 50000 nM; with HOP-92 NSCLC it was over 44400 nM; in the assay on COLO 205 colon, 128 nM.
